# Results published in patent publication US9725416B2, “Ethynyl derivatives” (Hoffmann-La Roche Inc., priority 2014, dated 2017).
# Target: T1, human mGlu4 receptor (Homo sapiens, UniProt Q14833)
# T1 construct: expressed in transfected cells; host or cells: HEK-293 (monoclonal, stably transfected)
# Test: Ca2+ mobilization in vitro assay on recombinant human mGlu4 expressed in HEK293 cells (mGlu4 PAM)
# Format: cell-based
# Conditions: for Emax: HEK293, maximal response in % of the maximal stimulatory effect obtained with saturating concentrations of L-AP4, read-out: Eff. (%); for EC50: HEK-293 cells, Ca2+ mobilization, L-AP4 added at EC20
# Protocol: Determination of EC50 Values Using a Ca2+ mobilization in vitro Assay on Recombinant Human mGlu4 Expressed in HEK293 cells:
# A monoclonal HEK-293 cell line stably transfected with a cDNA encoding for the human mGlu4 receptor was generated; for the work with mGlu4 Positive Allosteric Modulators (PAMs), a cell line with low receptor expression levels and low constitutive receptor activity was selected to allow the differentiation of agonistic versus PAM activity. Cells were cultured according to standard protocols (Freshney, 2000) in Dulbecco's Modified Eagle Medium with high glucose supplemented with 1 mM glutamine, 10% (vol/vol) heat-inactivated bovine calf serum, Penicillin/Streptomycin, 50 μg/ml hygromycin and 15 μg/ml blasticidin (all cell culture reagents and antibiotics from Invitrogen, Basel, Switzerland).
# About 24 hrs before an experiment, 5×10^4 cells/well were seeded in poly-D-lysine coated, black/clear-bottomed 96-well plates. The cells were loaded with 2.5 μM Fluo-4AM in loading buffer (1×HBSS, 20 mM HEPES) for 1 hr at 37° C. and washed five times with loading buffer. The cells were transferred into a Functional Drug Screening System 7000 (Hamamatsu, Paris, France), and 11 half logarithmic serial dilutions of test compound at 37° C. were added and the cells were incubated for 10-30 min. with on-line recording of fluorescence. Following this pre-incubation step, the agonist (2S)-2-amino-4-phosphonobutanoic acid (L-AP4) was added to the cells at a concentration corresponding to EC20 with on-line recording of fluorescence; in order to account for day-to-day variations in the responsiveness of cells, the EC20 of L-AP4 was determined immediately ahead of each experiment by recording of a full dose-response curve of L-AP4.
# Responses were measured as peak increase in fluorescence minus basal (i.e. fluorescence without addition of L-AP4), normalized to the maximal stimulatory effect obtained with saturating concentrations of L-AP4. Graphs were plotted with the % maximal stimulatory using XLfit, a curve fitting program that iteratively plots the data using Levenburg Marquardt algorithm. The single site competition analysis equation used was y=A+((B−A)/(1+((x/C)D))), where y is the % maximal stimulatory effect, A is the minimum y, B is the maximum y, C is the EC50, x is the log 10 of the concentration of the competing compound and D is the slope of the curve (the Hill Coefficient). From these curves the EC50 (drug concentration at which 50% of the maximal receptor activation was achieved), the Hill coefficient as well as the maximal response in % of the maximal stimulatory effect obtained with saturating concentrations of L-AP4 were calculated (see FIG. 1).
# A depression of the signal observed after addition of the EC20 concentration of L-AP4was indicative of an inhibitory activity of the test compound.
# T1 sequence (Q14833 33-912): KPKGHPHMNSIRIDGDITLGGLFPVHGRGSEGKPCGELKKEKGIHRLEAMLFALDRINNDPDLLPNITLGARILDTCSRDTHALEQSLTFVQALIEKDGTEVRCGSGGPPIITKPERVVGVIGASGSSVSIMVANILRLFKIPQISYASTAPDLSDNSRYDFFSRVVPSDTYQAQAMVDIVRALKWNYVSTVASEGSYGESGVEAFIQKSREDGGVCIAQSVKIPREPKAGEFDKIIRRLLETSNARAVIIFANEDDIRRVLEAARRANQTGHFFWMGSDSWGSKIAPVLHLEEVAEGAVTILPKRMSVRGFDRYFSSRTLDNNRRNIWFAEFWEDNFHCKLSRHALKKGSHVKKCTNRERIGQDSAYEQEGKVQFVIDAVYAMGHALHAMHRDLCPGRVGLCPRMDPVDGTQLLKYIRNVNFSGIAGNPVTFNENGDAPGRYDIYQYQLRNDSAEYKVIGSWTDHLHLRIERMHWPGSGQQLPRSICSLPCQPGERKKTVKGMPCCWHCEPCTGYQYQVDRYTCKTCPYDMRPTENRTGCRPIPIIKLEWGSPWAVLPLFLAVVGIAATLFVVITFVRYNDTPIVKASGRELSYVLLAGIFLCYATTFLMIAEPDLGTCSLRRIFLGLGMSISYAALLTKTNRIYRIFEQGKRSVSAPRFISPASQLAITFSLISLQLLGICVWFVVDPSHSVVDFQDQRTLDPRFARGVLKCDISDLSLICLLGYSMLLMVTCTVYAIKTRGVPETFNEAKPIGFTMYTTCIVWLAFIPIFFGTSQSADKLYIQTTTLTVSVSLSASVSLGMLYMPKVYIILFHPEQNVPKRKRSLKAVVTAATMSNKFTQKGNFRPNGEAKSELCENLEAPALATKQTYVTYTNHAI
Emax [%],EC50 [nM],Structure (SMILES)
148,157,"CC1C(=O)N(c2c(F)cc(C#Cc3ccccc3)cc2F)C(=O)N(C)C1(C)C (racemic) [Example 7, (5RS)-3-[2,6-Difluoro-4-(2-phenylethynyl)phenyl]-1,5,6,6-tetramethyl-hexahydropyrimidine-2,4-dione]"
107,144,"O=C1CC2COCCN2C(=O)N1c1c(F)cc(C#Cc2ccccc2)cc1F (racemic) [Example 8, (9aRS)-7-[2,6-Difluoro-4-(2-phenylethynyl)phenyl]-3,4,9,9a-tetrahydro-1H-pyrimido[6,1-c][1,4]oxazine-6,8-dione]"
131,163,"CN1C(=O)N(c2c(F)cc(C#Cc3ccccc3)cc2F)C(=O)[C@H]2CCC[C@H]21 (racemic) [Example 11, (4aRS,7aSR)-3-[2,6-Difluoro-4-(2-phenylethynyl)phenyl]-1-methyl-5,6,7,7a-tetrahydro-4aH-cyclopenta[d]pyrimidine-2,4-dione]"
115,260,"CN1C(=O)N(c2c(F)cc(C#Cc3ccccc3)cc2F)C(=O)CC12CCOC2 (racemic) [Example 12, (5RS)-8-[2,6-Difluoro-4-(2-phenylethynyl)phenyl]-6-methyl-2-oxa-6,8-diazaspiro[4.5]decane-7,9-dione]"
119,28,"CN1C(=O)N(c2c(F)cc(C#Cc3ccccc3)cc2F)C(=O)CC1(C)c1ccccc1 (racemic) [Example 13, (6RS)-3-[2,6-Difluoro-4-(2-phenylethynyl)phenyl]-1,6-dimethyl-6-phenyl-hexahydropyrimidine-2,4-dione]"
134,100,"CN1C(=O)N(c2c(F)cc(C#Cc3cccnc3)cc2F)C(=O)CC1(C)c1ccccc1 (racemic) [Example 15, (6RS)-3-[2,6-Difluoro-4-[2-(3-pyridyl)ethynyl]phenyl]-1,6-dimethyl-6-phenyl-hexahydropyrimidine-2,4-dione]"
136,105,"CCN1C(=O)N(c2c(F)cc(C#Cc3cccnc3)cc2F)C(=O)CC1(C)c1ccccc1 (racemic) [Example 16, (6RS)-3-[2,6-Difluoro-4-[2-(3-pyridyl)ethynyl]phenyl]-1-ethyl-6-methyl-6-phenyl-hexahydropyrimidine-2,4-dione]"
129,183,"CN1C(=O)N(c2c(F)cc(C#Cc3ccccc3)cc2F)C(=O)CC12CCCOC2 (racemic) [Example 17, (6RS)-3-[2,6-Difluoro-4-(2-phenylethynyl)phenyl]-1-methyl-8-oxa-1,3-diazaspiro[5.5]undecane-2,4-dione]"
241,49,"CCC1(C)CC(=O)N(c2c(F)cc(C#Cc3ccccc3)cc2F)C(=O)N1C (racemic) [Example 18, (6RS)-3-[2,6-Difluoro-4-(2-phenylethynyl)phenyl]-6-ethyl-1,6-dimethyl-hexahydropyrimidine-2,4-dione]"
126,947,"CN1C(=O)N(c2ccc(C#Cc3ccccc3)cn2)C(=O)CC1(C)c1ccccc1 (racemic) [Example 23, (6RS)-1,6-Dimethyl-6-phenyl-3-[5-(2-phenylethynyl)-2-pyridyl]hexahydropyrimidine-2,4-dione]"
126,254,"CN1C(=O)N(c2ccc(C#Cc3ccccc3)cc2)C(=O)CC1(C)c1ccccc1 (racemic) [Example 24, (6RS)-1,6-Dimethyl-6-phenyl-3-[4-(2-phenylethynyl)phenyl]hexahydropyrimidine-2,4-dione]"
105,83,"CC12CC(=O)N(c3c(F)cc(C#Cc4ccccc4)cc3F)C(=O)N1CCNC2=O (racemic) [Example 25, (9aRS)-7-[2,6-Difluoro-4-(2-phenylethynyl)phenyl]-9a-methyl-2,3,4,9-tetrahydropyrazino[1,2-c]pyrimidine-1,6,8-trione]"
107,64,"CC(C)C1(C)CC(=O)N(c2c(F)cc(C#Cc3ccccc3)cc2F)C(=O)N1C (racemic) [Example 26, (6RS)-3-[2,6-Difluoro-4-(2-phenylethynyl)phenyl]-6-isopropyl-1,6-dimethyl-hexahydropyrimidine-2,4-dione]"
99,72,"CN1C(=O)N(c2c(F)cc(C#Cc3ccccc3)cc2F)C(=O)CC1(C)c1ccccn1 (racemic) [Example 27, (6RS)-3-[2,6-Difluoro-4-(2-phenylethynyl)phenyl]-1,6-dimethyl-6-(2-pyridyl)hexahydropyrimidine-2,4-dione]"
105,112,"CN1C(=O)N(c2c(F)cc(C#Cc3ccccc3)cc2F)C(=O)CC1(C)c1ccncc1 (racemic) [Example 28, (6RS)-3-[2,6-Difluoro-4-(2-phenylethynyl)phenyl]-1,6-dimethyl-6-(4-pyridyl)hexahydropyrimidine-2,4-dione]"
144,109,"CN1C(=O)N(c2c(F)cc(C#Cc3ccccc3)cc2F)C(=O)CC1(C)c1cccnc1 (racemic) [Example 29, (6RS)-3-[2,6-Difluoro-4-(2-phenylethynyl)phenyl]-1,6-dimethyl-6-(3-pyridyl)hexahydropyrimidine-2,4-dione]"
103,123,"COCC1(C)CC(=O)N(c2c(F)cc(C#Cc3ccccc3)cc2F)C(=O)N1C (racemic) [Example 30, (6RS)-3-[2,6-Difluoro-4-(2-phenylethynyl)phenyl]-6-(methoxymethyl)-1,6-dimethyl-hexahydropyrimidine-2,4-dione]"
117,245,"CN1C(=O)N(c2c(F)cc(C#Cc3cccnc3)cc2F)C(=O)CC1(C)C1CCCCC1 (racemic) [Example 31, (6RS)-6-Cyclohexyl-3-[2,6-difluoro-4-[2-(3-pyridyl)ethynyl]phenyl]-1,6-dimethyl-hexahydropyrimidine-2,4-dione]"
103,155,"CN1C(=O)N(c2ncc(C#Cc3ccccc3)cc2Cl)C(=O)CC1(C)c1ccccc1 (racemic) [Example 32, (6RS)-3-[3-Chloro-5-(2-phenylethynyl)-2-pyridyl]-1,6-dimethyl-6-phenyl-hexahydropyrimidine-2,4-dione]"
142,171,"CN1C(=O)N(c2c(F)cc(C#Cc3cccnc3)cc2Cl)C(=O)CC1(C)c1cccnc1 (racemic) [Example 33, (6RS)-3-[2-Chloro-6-fluoro-4-[2-(3-pyridyl)ethynyl]phenyl]-1,6-dimethyl-6-(3-pyridyl)hexahydropyrimidine-2,4-dione]"
150,135,"CN1C(=O)N(c2c(F)cc(C#Cc3cccnc3)cc2Cl)C(=O)CC1(C)c1ccccc1 (racemic) [Example 34, (6RS)-3-[2-Chloro-6-fluoro-4-[2-(3-pyridyl)ethynyl]phenyl]-1,6-dimethyl-6-phenyl-hexahydropyrimidine-2,4-dione]"
131,158,"CN1CCN2C(=O)N(c3c(F)cc(C#Cc4ccccc4)cc3F)C(=O)CC2(C)C1=O (racemic) [Example 35, (9aRS)-7-[2,6-Difluoro-4-(2-phenylethynyl)phenyl]-2,9a-dimethyl-4,9-dihydro-3H-pyrazino[1,2-c]pyrimidine-1,6,8-trione]"
128,169,"CC(C)N1CCN2C(=O)N(c3c(F)cc(C#Cc4ccccc4)cc3F)C(=O)CC2(C)C1=O (racemic) [Example 36, (9aRS)-7-[2,6-Difluoro-4-(2-phenylethynyl)phenyl]-2-isopropyl-9a-methyl-4,9-dihydro-3H-pyrazino[1,2-c]pyrimidine-1,6,8-trione]"
97,131,"CC12CC(=O)N(c3c(F)cc(C#Cc4ccccc4)cc3F)C(=O)N1CCN(Cc1ccccc1)C2=O (racemic) [Example 37, (9aRS)-2-Benzyl-7-[2,6-difluoro-4-(2-phenylethynyl)phenyl]-9a-methyl-4,9-dihydro-3H-pyrazino[1,2-c]pyrimidine-1,6,8-trione]"
105,31,"CC12CC(=O)N(c3c(F)cc(C#Cc4ccccc4)cc3F)C(=O)N1CCN(c1ccccc1)C2=O (racemic) [Example 38, (9aRS)-7-[2,6-Difluoro-4-(2-phenylethynyl)phenyl]-9a-methyl-2-phenyl-4,9-dihydro-3H-pyrazino[1,2-c]pyrimidine-1,6,8-trione]"
